Test results reported in PubChem BioAssay AID256 (DTP/NCI, 2004).
Values joined by “and” are separate entries in the source; they are usually repeats but may differ in a detail not shown here. Equal values may be shown once. Toxic doses and inconclusive results are not listed. Rule for the calls: active = survival T/C of 150% or more; inactive = T/C below 125% in these data.

Tested on: CD2F1 mice, L1210 leukemia ip, survival T/C
Test: NCI In Vivo Anticancer Drug Screen. Data for tumor model L1210 Leukemia (intraperitoneal) in CD2F1 (CDF1) mice
Settings: higher = longer survival
Outline: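 Tumor-bearing mice (transplanted tumor) were split into treated and vehicle control groups, and the measured endpoint of each treated group was divided by that of its vehicle controls.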

[1] = endpoint: mean survival time, dose: 100.0 mg/kg/injection, schedule: Q01DX001 (ip), vehicle: saline
[2] = endpoint: mean survival time, dose: 200.0 mg/kg/injection, schedule: Q01DX001 (ip), vehicle: saline
[3] = endpoint: mean survival time, dose: 400.0 mg/kg/injection, schedule: Q01DX001 (ip), vehicle: saline
[4] = endpoint: mean survival time, dose: 100.0 mg/kg/injection, schedule: Q04DX003 (ip), vehicle: saline with Tween-80
[5] = endpoint: mean survival time, dose: 200.0 mg/kg/injection, schedule: Q04DX003 (ip), vehicle: saline with Tween-80
[6] = endpoint: mean survival time, dose: 400.0 mg/kg/injection, schedule: Q04DX003 (ip), vehicle: saline with Tween-80
[7] = endpoint: mean survival time, dose: 100.0 mg/kg/injection, schedule: Q01DX001 (ip), vehicle: saline with Tween-80
[8] = endpoint: mean survival time, dose: 200.0 mg/kg/injection, schedule: Q01DX001 (ip), vehicle: saline with Tween-80
[9] = endpoint: mean survival time, dose: 100.0 mg/kg/injection, schedule: Q01DX009 (ip), vehicle: saline with Tween-80
[10] = endpoint: mean survival time, dose: 200.0 mg/kg/injection, schedule: Q01DX009 (ip), vehicle: saline with Tween-80
[11] = endpoint: mean survival time, dose: 100.0 mg/kg/injection, schedule: Q04DX003 (ip), vehicle: saline
[12] = endpoint: mean survival time, dose: 200.0 mg/kg/injection, schedule: Q04DX003 (ip), vehicle: saline
[13] = endpoint: mean survival time, dose: 400.0 mg/kg/injection, schedule: Q04DX003 (ip), vehicle: saline
[14] = endpoint: mean survival time, dose: 400.0 mg/kg/injection, schedule: Q01DX009 (ip), vehicle: saline with Tween-80
[15] = endpoint: mean survival time, dose: 50.0 mg/kg/injection, schedule: Q01DX009 (ip), vehicle: saline with Tween-80

Measured: T/C

c1ccc(P(c2cccc3ccccc23)c2cccc3ccccc23)cc1
inactive: [1] 93 % of control | [2] 93 % of control | [3] 91 % of control

C=CCC1OC1CCCC1CO1 (configuration not stated)
inactive: endpoint: mean survival time, dose: 100.0 mg/kg/injection, schedule: Q01DX001 (ip), vehicle: saline sonified 94 % of control | endpoint: mean survival time, dose: 100.0 mg/kg/injection, schedule: Q04DX002 (ip), vehicle: saline with Tween-80 97 % of control | endpoint: mean survival time, dose: 200.0 mg/kg/injection, schedule: Q01DX001 (ip), vehicle: saline sonified 90 % of control | endpoint: mean survival time, dose: 200.0 mg/kg/injection, schedule: Q04DX002 (ip), vehicle: saline with Tween-80 101 % of control | endpoint: mean survival time, dose: 400.0 mg/kg/injection, schedule: Q01DX001 (ip), vehicle: saline sonified 97 % of control | endpoint: mean survival time, dose: 400.0 mg/kg/injection, schedule: Q04DX002 (ip), vehicle: saline with Tween-80 97 % of control

O=P(Oc1ccccc1)(c1ccccc1)c1ccccc1
inactive: [4] 109 % of control | [5] 95 % of control | [6] 109 % of control

CCCCCCCCCCCCCCC(=O)O.[Pb]
inactive: endpoint: mean survival time, dose: 75.0 mg/kg/injection, schedule: Q01DX001 (ip), vehicle: other 103 % of control | endpoint: mean survival time, dose: 150.0 mg/kg/injection, schedule: Q01DX001 (ip), vehicle: other 103 % of control | endpoint: mean survival time, dose: 300.0 mg/kg/injection, schedule: Q01DX001 (ip), vehicle: other 98 % of control

Nn1cnnc1SCc1ccccc1
inactive: endpoint: mean survival time, dose: 100.0 mg/kg/injection, schedule: Q04DX003 (ip), vehicle: other 100 % of control | endpoint: mean survival time, dose: 200.0 mg/kg/injection, schedule: Q04DX003 (ip), vehicle: other 97 % of control | endpoint: mean survival time, dose: 400.0 mg/kg/injection, schedule: Q04DX003 (ip), vehicle: other 105 % of control

COc1nc(Cl)nc(Cl)c1Cl (tested in a mixture with another compound)
inactive: endpoint: mean survival time, dose: 12.5 mg/kg/injection, schedule: Q01DX009 (ip), vehicle: other 93 % of control | endpoint: mean survival time, dose: 25.0 mg/kg/injection, schedule: Q01DX009 (ip), vehicle: other 93 % of control | endpoint: mean survival time, dose: 50.0 mg/kg/injection, schedule: Q01DX009 (ip), vehicle: other 104 % of control

Cc1cc(/C=C/c2ccc3cc(N(C)C)ccc3[n+]2C)c(C)n1-c1ccccc1
inactive: endpoint: mean survival time, dose: 0.1 mg/kg/injection, schedule: Q01DX009 (ip), vehicle: saline with Tween-80 95 % of control | endpoint: mean survival time, dose: 0.2 mg/kg/injection, schedule: Q01DX009 (ip), vehicle: saline with Tween-80 95 % of control | endpoint: mean survival time, dose: 0.39 mg/kg/injection, schedule: Q01DX009 (ip), vehicle: saline with Tween-80 98 % of control | endpoint: mean survival time, dose: 0.78 mg/kg/injection, schedule: Q01DX009 (ip), vehicle: saline with Tween-80 101 % of control

CC(C)(C)OC(=O)NC(Cc1ccc(OCc2ccccc2)cc1)C(=O)O (configuration not stated)
inactive: [4] 95 % of control | [5] 101 % of control

O=C1NC(=O)C(CCCCO)N1 (configuration not stated)
inactive: [7] 101 % of control | [8] 106 % of control | endpoint: mean survival time, dose: 300.0 mg/kg/injection, schedule: Q01DX001 (ip), vehicle: saline with Tween-80 98 % of control

N#C/C=C1\NC(=O)CS1
inactive: [9] 114 % of control | [4] 96 % of control | [10] 101 % of control | [5] 100 % of control | [6] 102 % of control

O=Cc1c2c(cc3ccccc13)Nc1ccccc1N2
inactive: endpoint: mean survival time, dose: 100.0 mg/kg/injection, schedule: Q04DX002 (ip), vehicle: saline + alcohol 89 % of control | endpoint: mean survival time, dose: 200.0 mg/kg/injection, schedule: Q04DX002 (ip), vehicle: saline + alcohol 89 % of control | endpoint: mean survival time, dose: 400.0 mg/kg/injection, schedule: Q04DX002 (ip), vehicle: saline + alcohol 86 % of control

O=C(O)COc1cccc(OCC(=O)O)c1
inactive: [4] 100 % of control | [11] 96 % of control | [5] 91 % of control | [12] 94 % of control | [13] 100 % of control

O=c1[nH]c(=O)n(CCCCOc2ccccc2)cc1-c1ccccc1
inactive: [7] 98 % of control | [8] 101 % of control | endpoint: mean survival time, dose: 400.0 mg/kg/injection, schedule: Q01DX001 (ip), vehicle: saline with Tween-80 96 % of control

O=C(O)c1ccccc1C(=O)N1CCCCC1
inactive: endpoint: mean survival time, dose: 12.5 mg/kg/injection, schedule: Q04DX002 (ip), vehicle: saline with Tween-80 94 % of control | endpoint: mean survival time, dose: 25.0 mg/kg/injection, schedule: Q04DX002 (ip), vehicle: saline with Tween-80 90 % of control | endpoint: mean survival time, dose: 50.0 mg/kg/injection, schedule: Q04DX002 (ip), vehicle: saline with Tween-80 110 % of control

CCN(C(=O)NC)c1cc(C)ccc1OC
inactive: [9] 87 % of control | [10] 87 % of control | [14] 98 % of control

C/C(=N/NC(=O)c1ccccc1)c1cccc(O)c1
inactive: [9] 89 % of control | [4] 94 % of control | [5] 90 % of control | [14] 103 % of control | [6] 97 % of control

O=CNc1ccc2c(c1)C(O)c1ccccc1-2 (configuration not stated)
inactive: endpoint: mean survival time, dose: 62.5 mg/kg/injection, schedule: Q04DX003 (ip), vehicle: saline with Tween-80 103 % of control | endpoint: mean survival time, dose: 125.0 mg/kg/injection, schedule: Q04DX003 (ip), vehicle: saline with Tween-80 98 % of control | endpoint: mean survival time, dose: 250.0 mg/kg/injection, schedule: Q04DX003 (ip), vehicle: saline with Tween-80 97 % of control

CCNC1(c2ccccc2)CCCCC1
inactive: endpoint: mean survival time, dose: 25.0 mg/kg/injection, schedule: Q04DX003 (ip), vehicle: saline 105 % of control

COc1ccc(-c2cc(C(=O)N/N=C/c3ccc([N+](=O)[O-])cc3)c3ccc(C)cc3n2)cc1OC
inactive: [9] 93 % of control | [10] 106 % of control | [14] 108 % of control

CC(NC(=O)CN)C(=O)O (configuration not stated)
inactive: [1] 100 % of control | [2] 100 % of control | [3] 104 % of control

CCOP(=S)(NCCOC)OCC
inactive: [4] 101 % of control | [5] 101 % of control | [6] 100 % of control

O=C1CSC(c2cccs2)N1c1nncs1 (configuration not stated)
inactive: endpoint: median survival time, dose: 25.0 mg/kg/injection, schedule: Q01DX005 (ip), vehicle: Klucel (hydroxypropylcellulose) (HPC) 94 % of control | endpoint: median survival time, dose: 50.0 mg/kg/injection, schedule: Q01DX005 (ip), vehicle: Klucel (hydroxypropylcellulose) (HPC) 102 % of control and 104 % of control and 110 % of control | endpoint: median survival time, dose: 100.0 mg/kg/injection, schedule: Q01DX005 (ip), vehicle: Klucel (hydroxypropylcellulose) (HPC) 94 % of control and 96 % of control and 103 % of control | endpoint: median survival time, dose: 200.0 mg/kg/injection, schedule: Q01DX005 (ip), vehicle: Klucel (hydroxypropylcellulose) (HPC) 116 % of control and 94 % of control (2×) | endpoint: median survival time, dose: 400.0 mg/kg/injection, schedule: Q01DX005 (ip), vehicle: Klucel (hydroxypropylcellulose) (HPC) 107 % of control | endpoint: median survival time, dose: 800.0 mg/kg/injection, schedule: Q01DX005 (ip), vehicle: Klucel (hydroxypropylcellulose) (HPC) 115 % of control

COc1ccc(CNCCCCCCNCc2ccc(OC)cc2)cc1
inactive: [15] 100 % of control | [9] 95 % of control | [4] 101 % of control | [5] 87 % of control

CCCCC=C1CC(C)CCC(C)C1 (configuration not stated)
inactive: [11] 101 % of control | [12] 104 % of control | [13] 104 % of control

Cc1ccc(S(N)(=O)=O)cc1
inactive: [9] 94 % of control | [10] 97 % of control | [14] 102 % of control

CCOC(=O)C(C)C(O)c1ccc(OC)cc1 (configuration not stated)
inactive: endpoint: mean survival time, dose: 12.5 mg/kg/injection, schedule: Q01DX009 (ip), vehicle: saline with Tween-80 101 % of control | endpoint: mean survival time, dose: 25.0 mg/kg/injection, schedule: Q01DX009 (ip), vehicle: saline with Tween-80 101 % of control | [15] 93 % of control

CCCCOC(=O)C(C)(C)O
inactive: [4] 96 % of control | [5] 102 % of control | [6] 98 % of control
